Measured values from PubChem BioAssay AID328 (DTP/NCI, 2004).
Several values for one entry are separate records, joined by “and”; a condition that tells them apart may be missing. Equal values may be shown once. Toxic doses and inconclusive results are not listed. The calls were made as follows: active = survival T/C of 150% or more; inactive = T/C below 125% in these data.

Test system: BDF1 mice, P388 leukemia ip, median survival T/C
Experiment: NCI In Vivo Anticancer Drug Screen. Data for tumor model P388 Leukemia (intraperitoneal) in B6D2F1 (BDF1) mice
Details: endpoint: median survival time, higher = longer survival
Method in brief: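 In tumour-bearing mice, survival after compound treatment is set against the vehicle group and given as a quotient.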

[1] = dose: 6.25 mg/kg/injection, schedule: Q01DX009 (ip), vehicle: saline with Tween-80
[2] = dose: 6.25 mg/kg/injection, schedule: Q04DX003 (ip), vehicle: saline
[3] = dose: 12.5 mg/kg/injection, schedule: Q01DX009 (ip), vehicle: saline with Tween-80
[4] = dose: 12.5 mg/kg/injection, schedule: Q04DX003 (ip), vehicle: saline
[5] = dose: 25.0 mg/kg/injection, schedule: Q01DX009 (ip), vehicle: saline with Tween-80
[6] = dose: 25.0 mg/kg/injection, schedule: Q04DX003 (ip), vehicle: saline
[7] = dose: 50.0 mg/kg/injection, schedule: Q01DX009 (ip), vehicle: saline with Tween-80
[8] = dose: 100.0 mg/kg/injection, schedule: Q01DX009 (ip), vehicle: saline with Tween-80
[9] = dose: 100.0 mg/kg/injection, schedule: Q04DX003 (ip), vehicle: Klucel (hydroxypropylcellulose) (HPC)
[10] = dose: 200.0 mg/kg/injection, schedule: Q04DX003 (ip), vehicle: Klucel (hydroxypropylcellulose) (HPC)
[11] = dose: 400.0 mg/kg/injection, schedule: Q04DX003 (ip), vehicle: Klucel (hydroxypropylcellulose) (HPC)
[12] = dose: 50.0 mg/kg/injection, schedule: Q01DX009 (ip), vehicle: saline
[13] = dose: 100.0 mg/kg/injection, schedule: Q01DX009 (ip), vehicle: saline
[14] = dose: 100.0 mg/kg/injection, schedule: Q01DX009 (ip), vehicle: Klucel (hydroxypropylcellulose) (HPC)

Measured: T/C

COc1cccc(CN2CCNCC2)c1
inactive: dose: 6.25 mg/kg/injection, schedule: Q04DX003 (ip), vehicle: water 87 % of control | dose: 12.5 mg/kg/injection, schedule: Q04DX003 (ip), vehicle: water 89 % of control | dose: 25.0 mg/kg/injection, schedule: Q04DX003 (ip), vehicle: water 93 % of control | dose: 50.0 mg/kg/injection, schedule: Q04DX003 (ip), vehicle: water 101 % of control | dose: 100.0 mg/kg/injection, schedule: Q04DX003 (ip), vehicle: water 94 % of control

CC1(C)COP(OCC(F)(F)F)OC1
inactive: dose: 25.0 mg/kg/injection, schedule: Q01DX005 (ip), vehicle: saline with Tween-80 92 % of control | dose: 50.0 mg/kg/injection, schedule: Q01DX005 (ip), vehicle: saline with Tween-80 94 % of control | dose: 100.0 mg/kg/injection, schedule: Q01DX005 (ip), vehicle: saline with Tween-80 94 % of control

CC1CCC2(OC1)OC1C(O)C3C4CCC5CC(OC6OC(CO)C(OC7OC(CO)C(O)C(OC8OCC(O)C(O)C8O)C7OC7OC(CO)C(O)C(OC8OC(CO)C(O)C(O)C8O)C7O)C(O)C6O)C(O)CC5(C)C4CCC3(C)C1C2C (configuration not stated)
inactive: [1] 100 % of control | [2] 92 % of control | [3] 95 % of control | [4] 92 % of control | [5] 104 % of control | [6] 96 % of control

c1cc(Nc2ccncc2)ccn1
inactive: [1] 96 % of control | [2] 115 % of control | [3] 104 % of control | [4] 92 % of control | [5] 108 % of control | [6] 107 % of control

O=C1NN=C(c2ccc(Cl)cc2)CS1
inactive: [7] 103 % of control | [8] 103 % of control

CCOC(=O)C(=O)Cc1cnc2ccccc2n1
inactive: [9] 86 % of control | [10] 86 % of control | [11] 90 % of control

CCOC(=O)c1cnc(SCc2ccccc2Cl)nc1N1CC1
inactive: dose: 10.6 mg/kg/injection, schedule: Q01DX009 (ip), vehicle: Klucel (hydroxypropylcellulose) (HPC) 108 % of control | dose: 28.05 mg/kg/injection, schedule: Q01DX009 (ip), vehicle: Klucel (hydroxypropylcellulose) (HPC) 114 % of control
active: dose: 63.75 mg/kg/injection, schedule: Q01DX009 (ip), vehicle: Klucel (hydroxypropylcellulose) (HPC) 152 % of control

COc1ccc2c(c1)/C(=C/CCN(C)C)c1ccccc1S2
inactive: dose: 12.5 mg/kg/injection, schedule: Q01DX009 (ip), vehicle: saline 109 % of control | dose: 16.5 mg/kg/injection, schedule: Q01DX009 (ip), vehicle: saline 118 % of control | dose: 37.5 mg/kg/injection, schedule: Q01DX009 (ip), vehicle: saline 95 % of control | [12] 118 % of control

O=[N+]([O-])CC(O)C(O)C(O)C(O)CO (configuration not stated)
inactive: [13] 95 % of control | dose: 100.0 mg/kg/injection, schedule: Q04DX003 (ip), vehicle: saline 104 % of control | dose: 200.0 mg/kg/injection, schedule: Q01DX009 (ip), vehicle: saline 100 % of control | dose: 200.0 mg/kg/injection, schedule: Q04DX003 (ip), vehicle: saline 100 % of control | dose: 400.0 mg/kg/injection, schedule: Q01DX009 (ip), vehicle: saline 100 % of control | dose: 400.0 mg/kg/injection, schedule: Q04DX003 (ip), vehicle: saline 104 % of control

CS(=O)(=O)/C=C(\c1ccccc1)c1cccs1
inactive: [7] 114 % of control | [8] 100 % of control | dose: 200.0 mg/kg/injection, schedule: Q01DX009 (ip), vehicle: saline with Tween-80 96 % of control

N=N/C(=C\c1c(O)[nH]c2ccccc12)c1ccccc1
inactive: dose: 50.0 mg/kg/injection, schedule: Q04DX003 (ip), vehicle: Klucel (hydroxypropylcellulose) (HPC) 100 % of control | [9] 108 % of control | [10] 108 % of control | [11] 90 % of control

COc1cc(C=Nc2cccc(C(F)(F)F)c2)ccc1O
inactive: [9] 95 % of control | [10] 100 % of control

CCOC(=O)CNC(c1ccccc1)(c1ccccc1)c1ccccc1
inactive: [14] 95 % of control | [9] 109 % of control | dose: 200.0 mg/kg/injection, schedule: Q01DX009 (ip), vehicle: Klucel (hydroxypropylcellulose) (HPC) 91 % of control | [10] 113 % of control | dose: 400.0 mg/kg/injection, schedule: Q01DX009 (ip), vehicle: Klucel (hydroxypropylcellulose) (HPC) 108 % of control | [11] 104 % of control

CCC1NC(C)(C)CC1=C(C)C (configuration not stated)
inactive: dose: 1.56 mg/kg/injection, schedule: Q01DX009 (ip), vehicle: saline 104 % of control | dose: 3.13 mg/kg/injection, schedule: Q01DX009 (ip), vehicle: saline 104 % of control | dose: 6.25 mg/kg/injection, schedule: Q01DX009 (ip), vehicle: saline 104 % of control

CCC1OCCN1C(C)C (configuration not stated)
inactive: [12] 108 % of control | [13] 108 % of control

Nc1ncnc2[nH]c(=O)[nH]c12
inactive: [3] 104 % of control | [5] 109 % of control | dose: 200.0 mg/kg/injection, schedule: Q04DX003 (ip), vehicle: saline with Tween-80 104 % of control | dose: 400.0 mg/kg/injection, schedule: Q04DX003 (ip), vehicle: saline with Tween-80 114 % of control

N#Cc1ccc(-c2ccc(C#N)cc2Br)c(Br)c1
inactive: dose: 22.0 mg/kg/injection, schedule: Q01DX009 (ip), vehicle: Klucel (hydroxypropylcellulose) (HPC) 92 % of control | dose: 25.0 mg/kg/injection, schedule: Q01DX009 (ip), vehicle: Klucel (hydroxypropylcellulose) (HPC) 110 % of control | dose: 33.0 mg/kg/injection, schedule: Q01DX009 (ip), vehicle: Klucel (hydroxypropylcellulose) (HPC) 95 % of control | dose: 50.0 mg/kg/injection, schedule: Q01DX009 (ip), vehicle: Klucel (hydroxypropylcellulose) (HPC) 100 % of control | dose: 75.0 mg/kg/injection, schedule: Q01DX009 (ip), vehicle: Klucel (hydroxypropylcellulose) (HPC) 89 % of control | [14] 88 % of control and 110 % of control | [9] 95 % of control | [10] 100 % of control | [11] 100 % of control

CC(C)=CCOc1ccc2ccc(=O)oc2c1
inactive: dose: 4.0 mg/kg/injection, schedule: Q01DX009 (ip), vehicle: Klucel (hydroxypropylcellulose) (HPC) 100 % of control | dose: 8.0 mg/kg/injection, schedule: Q01DX009 (ip), vehicle: Klucel (hydroxypropylcellulose) (HPC) 98 % of control | dose: 16.0 mg/kg/injection, schedule: Q01DX009 (ip), vehicle: Klucel (hydroxypropylcellulose) (HPC) 108 % of control | dose: 32.0 mg/kg/injection, schedule: Q01DX009 (ip), vehicle: Klucel (hydroxypropylcellulose) (HPC) 90 % of control

CCCCn1cnc2c(SC3CCCC3)ncnc21
inactive: dose: 100.0 mg/kg/injection, schedule: Q01DX009 (ip), vehicle: other 100 % of control | dose: 100.0 mg/kg/injection, schedule: Q04DX003 (ip), vehicle: saline sonified 100 % of control | dose: 200.0 mg/kg/injection, schedule: Q01DX009 (ip), vehicle: other 90 % of control | dose: 200.0 mg/kg/injection, schedule: Q04DX003 (ip), vehicle: saline sonified 100 % of control | dose: 400.0 mg/kg/injection, schedule: Q01DX009 (ip), vehicle: other 120 % of control | dose: 400.0 mg/kg/injection, schedule: Q04DX003 (ip), vehicle: saline sonified 100 % of control

CC(=O)CC(=O)c1ccccc1.CC(=O)CC(=O)c1ccccc1.CC(=O)CC(=O)c1ccccc1.[Co]
inactive: dose: 10.0 mg/kg/injection, schedule: Q01DX001 (ip), vehicle: Klucel (hydroxypropylcellulose) (HPC) 90 % of control | dose: 10.0 mg/kg/injection, schedule: Q04DX003 (ip), vehicle: Klucel (hydroxypropylcellulose) (HPC) 104 % of control | dose: 20.0 mg/kg/injection, schedule: Q01DX001 (ip), vehicle: Klucel (hydroxypropylcellulose) (HPC) 104 % of control | dose: 20.0 mg/kg/injection, schedule: Q04DX003 (ip), vehicle: Klucel (hydroxypropylcellulose) (HPC) 104 % of control | dose: 40.0 mg/kg/injection, schedule: Q01DX001 (ip), vehicle: Klucel (hydroxypropylcellulose) (HPC) 104 % of control | dose: 40.0 mg/kg/injection, schedule: Q04DX003 (ip), vehicle: Klucel (hydroxypropylcellulose) (HPC) 100 % of control
